# Data reported in patent publication US7659299B2, “Compounds inhibiting the binding of sap for treating osteoarthritis” (Pentraxin Therapeutics Limited, priority 2003, dated 2010).
# Assays:
# Set-up in all cases: 5 μl of radiolabelled SAP in TN; from tissue
# SAP [1] = target: T1, SAP (Homo sapiens, UniProt P02743); assay: Inhibition of binding of 125I radiolabelled SAP to Neisseria meningitidis immobilized in microtitre plates; conditions: for inhibition at 0.2 µM: compound 200 nM; for inhibition at 0.2 µM / inhibition at 2 µM / inhibition at 20 µM / inhibition at 200 µM / inhibition at 2000 µM: read-out: Percent inhibition of binding of radiolabelled SAP to immobilized Neisseria meningitidis; for inhibition at 2 µM: compound 2 μM; for inhibition at 20 µM: compound 20 μM; for inhibition at 200 µM: compound 200 μM; for inhibition at 2000 µM: compound 2 mM
# T1 sequence (P02743 20-223): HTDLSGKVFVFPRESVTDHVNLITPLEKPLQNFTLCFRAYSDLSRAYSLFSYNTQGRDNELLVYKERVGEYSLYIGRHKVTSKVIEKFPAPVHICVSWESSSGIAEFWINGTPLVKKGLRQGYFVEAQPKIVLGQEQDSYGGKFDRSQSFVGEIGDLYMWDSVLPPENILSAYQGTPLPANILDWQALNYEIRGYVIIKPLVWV
# Procedure: A suspension of heat killed Neisseria meningitidis at 1×10^8 organisms per ml in PBS was dispensed to polystyrene microtitre plates at 50 μl volumes per well, and left overnight at 4° C. All wells were then washed three times with 200 μl volumes of PBS containing 0.05% v/v Tween 20, prior to equilibration for 2 min with 0.01M Tris buffered 0.14M NaCl/0.002M CaCl2 at pH 8.0 (TC buffer), containing 4% w/v BSA and 0.05%/v Tween 20 (TCBT buffer). The wells were then emptied before adding to each one the following reagents. […] For background, non-specific, non calcium dependent, binding in the presence of EDTA: 5 μl radiolabelled SAP in TN and 45 μl 0.01M Tris buffered 0.14M NaCl at pH 8.0 containing 11.1 mM EDTA, 4.4% w/v BSA and 0.06% w/v Tween 20 (TEBT buffer) to provide final concentrations of EDTA, 10 mM; BSA, 4%; Tween 20, 0.05%. […] All wells were then incubated at room temperature for 2 h before being washed three times with 200 μl volumes of TCBT, allowed to dry for 1 h at room temperature, and bound radiolabelled SAP was then counted.
# The capacity of the compounds tested to inhibit binding of SAP to meningococci is expressed as the percentage by which SAP binding was reduced compared to binding in the absence of any inhibitor (Table 1).
# SAP [2] = target: T1, SAP; assay: Inhibition of binding of 125I radiolabelled SAP to native long chromatin immobilized in microtitre plates; conditions: for inhibition at 0.2 µM: compound 200 nM; for inhibition at 0.2 µM / inhibition at 2 µM / inhibition at 20 µM / inhibition at 200 µM / inhibition at 2000 µM: read-out: Percent inhibition of binding of radiolabelled SAP to immobilized native long chromatin; for inhibition at 2 µM: compound 2 μM; for inhibition at 20 µM: compound 20 μM; for inhibition at 200 µM: compound 200 μM; for inhibition at 2000 µM: compound 2 mM
# SAP [3] = target: T1, SAP; assay: Inhibition of binding of 125I radiolabelled SAP to influenza virus immobilized in microtitre plates; conditions: for inhibition at 0.2 µM: compound 200 nM; for inhibition at 0.2 µM / inhibition at 2 µM / inhibition at 20 µM / inhibition at 200 µM / inhibition at 2000 µM: read-out: Percent inhibition of binding of radiolabelled SAP to immobilized influenza virus; for inhibition at 2 µM: compound 2 μM; for inhibition at 20 µM: compound 20 μM; for inhibition at 200 µM: compound 200 μM; for inhibition at 2000 µM: compound 2 mM
# Procedure: A concentrated suspension of purified influenza virus A/Shanghai/24/90 at 10 mg protein per ml in PBS was diluted 1:50 in PBS and then dispensed to polystyrene microtitre plates at 50 μl volumes per well, and left overnight at 4° C. All wells were then emptied before blocking by addition to each well of 200 μl of 2% w/v BSA in PBS and incubation at room temperature for 1 h. All wells were then washed three times with 200 μl volumes of PBS containing 0.05% v/v Tween 20, prior to equilibration for 2 min with 0.01M Tris buffered 0.14M NaCl/0.002M CaCl2 at pH 8.0 (TC buffer), containing 4% w/v BSA and 0.05% v/v Tween 20 (TCBT buffer). The wells were then emptied before adding to each one the following reagents. […] For background, non-specific, non calcium dependent, binding in the presence of EDTA: 5 μl radiolabelled SAP in TN and 45 μl 0.01M Tris buffered 0.14M NaCl at pH 8.0 containing 11.1 mM EDTA, 4.4% w/v BSA and 0.06% w/v Tween 20 (TEBT buffer) to provide final concentrations of EDTA, 10 mM; BSA, 4%; Tween 20, 0.05%. […] All wells were then incubated at room temperature for 2 h before being washed three times with 200 μl volumes of TCBT, allowed to dry for 1 h at room temperature, and bound radiolabelled SAP was then counted. The compounds tested in the experiment shown here were the same as those specified in Example B above.
# The capacity of the compounds tested to inhibit binding of SAP to the immobilised influenza virus is expressed as the percentage by which SAP binding was reduced compared to binding in the absence of any inhibitor (Table 3).
SMILES,Percent inhibition of binding of radiolabelled SAP to immobilized Neisseria meningitidis (SAP [1]; EDTA 10 mM (printed in the 2 mM column)),"Inhibition of binding of SAP to meningococci, in words (SAP [1]; summary of Table 1)","Inhibition of binding of SAP to chromatin, in words (SAP [2]; Table 2)","Inhibition of binding of SAP to immobilised influenza virus, in words (SAP [3]; summary of Table 3)",inhibition at 0.2 µM (SAP [1]),inhibition at 2 µM (SAP [1]),inhibition at 20 µM (SAP [1]),inhibition at 200 µM (SAP [1]),inhibition at 2000 µM (SAP [1]),inhibition at 0.2 µM (SAP [2]),inhibition at 2 µM (SAP [2]),inhibition at 20 µM (SAP [2]),inhibition at 200 µM (SAP [2]),inhibition at 2000 µM (SAP [2]),inhibition at 0.2 µM (SAP [3]),inhibition at 2 µM (SAP [3]),inhibition at 20 µM (SAP [3]),inhibition at 200 µM (SAP [3]),inhibition at 2000 µM (SAP [3])
"O=C(O)CN(CCN(CC(=O)O)CC(=O)O)CC(=O)O [EDTA, reference compound]",100%,All binding was inhibited,All binding was inhibited,All binding was inhibited,–,–,–,–,–,–,–,–,–,–,–,–,–,–,–
"O=C(O)[C@H]1CCCN1C(=O)Cc1ccc(CC(=O)N2CCC[C@@H]2C(=O)O)cc1 [Ro-63-7777, (R)-1-[[4-[2-[(R)-2-Carboxy-pyrrolidin-1-yl]-2-oxo-ethyl]-phenyl]-acetyl]-pyrrolidine-2-carboxylic acid]",–,–,–,–,7%,64%,73%,100%,100%,4%,19%,39%,66%,92%,37%,65%,85%,89%,89%
"O=C(O)[C@H]1CCCN1C(=O)COc1ccccc1OCC(=O)N1CCC[C@@H]1C(=O)O [Ro-63-8593, (R)-1-[[2-[2-[(R)-2-Carboxy-pyrrolidin-1-yl]-2-oxo-ethoxy]-phenoxyl]-acetyl]-pyrrolidine-2-carboxylic acid]",–,–,–,–,18%,–,87%,100%,100%,7%,34%,77%,89%,96%,44%,68%,88%,93%,94%
"O=C(O)[C@H]1CCCN1C(=O)[C@H]1CC[C@@H](C(=O)N2CCC[C@@H]2C(=O)O)CC1 [Ro-64-2600, (R)-1-[cis-4-[(R)-2-Carboxy-pyrrolidine-1-carbonyl]-cyclohexanecarbonyl]-pyrrolidine-2-carboxylic acid]",–,–,–,–,31%,73%,93%,–,–,1%,35%,67%,94%,100%,0%,76%,83%,89%,92%
